Assay results as given in ChEMBL document CHEMBL1201862, “PubChem BioAssay data set” (2004).
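Growth conditions: 96-well plates. Treatment: test compound, 48 hours, 5 concentrations. Analysis: linear interpolation between bracketing concentrations; unreached endpoints set to highest concentration. Abbreviation: GI50, concentration required for 50% inhibition of growth.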 Active and inactive are the calls of the source. No stated cut-off is given here; in the data, active = GI50 up to about 1.1 µM and inactive = higher.

Key:
Test in all cases: inhibition of tumour cell growth, NCI panel, 48 h
786-0 = test system: 786-0
A498 = test system: A498
A549 = test system: A549
ACHN = test system: ACHN
BT-549 = test system: BT-549
CAKI-1 = test system: CAKI-1
CCRF-CEM = test system: CCRF-CEM
COLO 205 = test system: COLO 205
DU-145 = test system: DU-145
EKVX = test system: EKVX
HCC 2998 = test system: HCC 2998
HCT-116 = test system: HCT-116
HCT-15 = test system: HCT-15
HL-60 = test system: HL-60
HOP-62 = test system: HOP-62
HOP-92 = test system: HOP-92
HT-29 = test system: HT-29
Hs-578T = test system: Hs-578T
IGROV-1 = test system: IGROV-1
K562 = test system: K562
KM12 = test system: KM12
LOX IMVI = test system: LOX IMVI
M14 = test system: M14
MCF7 = test system: MCF7
MDA-MB-231 = test system: MDA-MB-231
MDA-MB-435 = test system: MDA-MB-435
MDA-N = test system: MDA-N
Malme-3M = test system: Malme-3M
NCI-H226 = test system: NCI-H226
NCI-H23 = test system: NCI-H23
NCI-H460 = test system: NCI-H460
NCI-H522 = test system: NCI-H522
NCI/ADR-RES = test system: NCI/ADR-RES
OVCAR-3 = test system: OVCAR-3
OVCAR-4 = test system: OVCAR-4
OVCAR-5 = test system: OVCAR-5
OVCAR-8 = test system: OVCAR-8
PC-3 = test system: PC-3
RPMI-8226 = test system: RPMI-8226
RXF 393 = test system: RXF 393
SF-268 = test system: SF-268
SF-295 = test system: SF-295
SK-MEL-28 = test system: SK-MEL-28
SK-MEL-2 = test system: SK-MEL-2
SK-MEL-5 = test system: SK-MEL-5
SK-OV-3 = test system: SK-OV-3
SN12C = test system: SN12C
SNB-19 = test system: SNB-19
SNB-75 = test system: SNB-75
SR = test system: SR
SW-620 = test system: SW-620
T47D = test system: T47D
TK-10 = test system: TK-10
U-251 = test system: U-251
UACC-257 = test system: UACC-257
UACC-62 = test system: UACC-62
UO-31 = test system: UO-31
MOLT-4 = test system: MOLT-4
SF-539 = test system: SF-539

O=C(O)/C=C\C(=O)Nc1ccc2c(c1)-c1ccccc1C2
GI50 (786-0): 91.4 µM (inactive)
GI50 (A498): 94.6 µM (inactive)
GI50 (A549): > 100 µM (inactive)
GI50 (ACHN): > 100 µM (inactive)
GI50 (BT-549): 39.8 µM (inactive)
GI50 (CAKI-1): > 100 µM (inactive)
GI50 (CCRF-CEM): 56.8 µM (inactive)
GI50 (COLO 205): > 100 µM (inactive)
GI50 (DU-145): 80.2 µM (inactive)
GI50 (EKVX): 87.9 µM (inactive)
GI50 (HCC 2998): 36.7 µM (inactive)
GI50 (HCT-116): 99.3 µM (inactive)
GI50 (HCT-15): 44.7 µM
GI50 (HL-60): > 100 µM (inactive)
GI50 (HOP-62): 81.3 µM (inactive)
GI50 (HOP-92): 44.6 µM (inactive)
GI50 (HT-29): > 100 µM (inactive)
GI50 (Hs-578T): 44.5 µM (inactive)
GI50 (IGROV-1): > 100 µM (inactive)
GI50 (K562): 64.9 µM (inactive)
GI50 (KM12): > 100 µM (inactive)
GI50 (LOX IMVI): 77.3 µM (inactive)
GI50 (M14): > 100 µM (inactive)
GI50 (MCF7): 37.3 µM (inactive)
GI50 (MDA-MB-231): > 100 µM (inactive)
GI50 (MDA-MB-435): > 100 µM (inactive)
GI50 (MDA-N): > 100 µM (inactive)
GI50 (Malme-3M): 63.7 µM (inactive)
GI50 (NCI-H226): 28.9 µM (inactive)
GI50 (NCI-H23): 70.8 µM (inactive)
GI50 (NCI-H460): > 100 µM (inactive)
GI50 (NCI-H522): 37 µM (inactive)
GI50 (NCI/ADR-RES): 56.1 µM (inactive)
GI50 (OVCAR-3): 30.8 µM (inactive)
GI50 (OVCAR-4): > 100 µM (inactive)
GI50 (OVCAR-5): > 100 µM (inactive)
GI50 (OVCAR-8): 77.4 µM (inactive)
GI50 (PC-3): 69.2 µM (inactive)
GI50 (RPMI-8226): 42.5 µM (inactive)
GI50 (RXF 393): > 100 µM (inactive)
GI50 (SF-268): 58.2 µM (inactive)
GI50 (SF-295): > 100 µM (inactive)
GI50 (SK-MEL-28): > 100 µM (inactive)
GI50 (SK-MEL-2): 38.5 µM (inactive)
GI50 (SK-MEL-5): > 100 µM (inactive)
GI50 (SK-OV-3): > 100 µM (inactive)
GI50 (SN12C): > 100 µM (inactive)
GI50 (SNB-19): 42.3 µM (inactive)
GI50 (SNB-75): > 100 µM (inactive)
GI50 (SR): 44.9 µM (inactive)
GI50 (SW-620): > 100 µM (inactive)
GI50 (T47D): 88.1 µM (inactive)
GI50 (TK-10): > 100 µM (inactive)
GI50 (U-251): 56.2 µM (inactive)
GI50 (UACC-257): 98.6 µM (inactive)
GI50 (UACC-62): > 100 µM (inactive)
GI50 (UO-31): > 100 µM (inactive)

CC1CC(C)CN(S(=O)(=O)c2cc(Cl)c(Oc3ccc([N+](=O)[O-])cc3Cl)c(Cl)c2)C1 (stereo not given)
GI50 (786-0): > 100 µM (inactive)
GI50 (A498): > 100 µM (inactive)
GI50 (A549): > 100 µM (inactive)
GI50 (ACHN): > 100 µM (inactive)
GI50 (BT-549): > 100 µM (inactive)
GI50 (CAKI-1): > 100 µM (inactive)
GI50 (COLO 205): > 100 µM (inactive)
GI50 (DU-145): > 100 µM (inactive)
GI50 (EKVX): > 100 µM (inactive)
GI50 (HCC 2998): > 100 µM (inactive)
GI50 (HCT-116): > 100 µM (inactive)
GI50 (HCT-15): > 100 µM
GI50 (HL-60): > 100 µM (inactive)
GI50 (HOP-62): > 100 µM (inactive)
GI50 (HOP-92): > 100 µM (inactive)
GI50 (HT-29): > 100 µM (inactive)
GI50 (Hs-578T): > 100 µM (inactive)
GI50 (IGROV-1): > 100 µM (inactive)
GI50 (K562): > 100 µM (inactive)
GI50 (KM12): > 100 µM (inactive)
GI50 (LOX IMVI): > 100 µM (inactive)
GI50 (M14): > 100 µM (inactive)
GI50 (MCF7): > 100 µM (inactive)
GI50 (MDA-MB-231): > 100 µM (inactive)
GI50 (MDA-MB-435): > 100 µM (inactive)
GI50 (MDA-N): > 100 µM (inactive)
GI50 (MOLT-4): > 100 µM (inactive)
GI50 (Malme-3M): > 100 µM (inactive)
GI50 (NCI-H226): > 100 µM (inactive)
GI50 (NCI-H23): > 100 µM (inactive)
GI50 (NCI-H460): > 100 µM (inactive)
GI50 (NCI-H522): > 100 µM (inactive)
GI50 (NCI/ADR-RES): > 100 µM (inactive)
GI50 (OVCAR-3): > 100 µM (inactive)
GI50 (OVCAR-4): > 100 µM (inactive)
GI50 (OVCAR-5): > 100 µM (inactive)
GI50 (OVCAR-8): > 100 µM (inactive)
GI50 (PC-3): > 100 µM (inactive)
GI50 (RPMI-8226): > 100 µM (inactive)
GI50 (RXF 393): > 100 µM (inactive)
GI50 (SF-268): > 100 µM (inactive)
GI50 (SF-295): > 100 µM (inactive)
GI50 (SF-539): > 100 µM (inactive)
GI50 (SK-MEL-28): > 100 µM (inactive)
GI50 (SK-MEL-2): > 100 µM (inactive)
GI50 (SK-MEL-5): > 100 µM (inactive)
GI50 (SK-OV-3): > 100 µM (inactive)
GI50 (SN12C): > 100 µM (inactive)
GI50 (SNB-19): > 100 µM (inactive)
GI50 (SNB-75): > 100 µM (inactive)
GI50 (SR): > 100 µM (inactive)
GI50 (SW-620): > 100 µM (inactive)
GI50 (T47D): > 100 µM (inactive)
GI50 (TK-10): > 100 µM (inactive)
GI50 (U-251): > 100 µM (inactive)
GI50 (UACC-257): > 100 µM (inactive)
GI50 (UACC-62): > 100 µM (inactive)
GI50 (UO-31): > 100 µM (inactive)
